Experiments:
Format in all cases: binding
[1] = molecular target: T1, VpBTN2 B30.2 and VpBTN3 B30.2 ΔC domains (Vicugna pacos, UniProt A0A345DF50+A0A6J0B3M7); test: ITC, DMASPP titrated into mixture of VpBTN2 and VpBTN3 B30.[…] ΔC (first titration)
T1 construct: gene Btn3; mixture of VpBTN2 B30.2 (residues 311-535) and VpBTN3 B30.2 ΔC (residues 323-513), mixed 2:1; E. coli BL21(DE3), His tags removed by TEV; VpBTN2 site R475, T508, V509

[2] = molecular target: T1, VpBTN2 B30.2 and VpBTN3 B30.2 ΔC domains; test: ITC, VpBTN2 B30.[…] titrated into preformed VpBTN3 B30.[…] ΔC-DMASPP complex (second titration); conditions: 25 °C, 25 mM Hepes pH 7.5, 150 mM NaCl; molecular glue; protein-protein KD in presence of DMASPP
[3] = molecular target: T2, VpBTN2 B30.2 and full-length VpBTN3 B30.2 domain (Vicugna pacos, UniProt A0A345DF50+A0A6J0B3M7); test: ITC, VpBTN2 B30.[…] titrated into preformed full-length VpBTN3 B30.2-DMASPP complex (second titration); conditions: 25 °C, 25 mM Hepes pH 7.5, 150 mM NaCl; molecular glue; protein-protein KD in presence of DMASPP
T2 construct: gene Btn3; E. coli
T2 sequence (A0A345DF50 323-557 limits assumed): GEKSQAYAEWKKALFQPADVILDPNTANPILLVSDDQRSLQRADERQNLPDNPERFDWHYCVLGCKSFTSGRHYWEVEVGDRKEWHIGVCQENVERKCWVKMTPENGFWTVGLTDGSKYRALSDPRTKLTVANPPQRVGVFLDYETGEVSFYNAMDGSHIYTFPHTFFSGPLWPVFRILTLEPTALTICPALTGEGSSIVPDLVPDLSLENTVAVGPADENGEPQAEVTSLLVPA
T2 sequence (A0A6J0B3M7 311-535): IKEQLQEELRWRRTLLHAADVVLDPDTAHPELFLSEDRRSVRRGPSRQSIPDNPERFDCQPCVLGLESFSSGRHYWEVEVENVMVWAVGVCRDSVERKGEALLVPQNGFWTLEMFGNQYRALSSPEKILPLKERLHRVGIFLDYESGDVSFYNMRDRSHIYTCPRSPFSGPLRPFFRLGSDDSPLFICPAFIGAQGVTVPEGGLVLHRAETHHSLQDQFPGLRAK

[4] = molecular target: T3, BTN3A1 and BTN2A1 B30.2 domains (Homo sapiens, UniProt O00481+Q7KYR7); test: ITC, DMASPP titrated into mixture of BTN2A1 and BTN3A1 B30.[…] (first titration)
T3 construct: BTN2A1 B30.2 in pET28a, Ni-NTA and DEAE; BTN3A1 B30.2 prepared as VpBTN3 B30.2; printed PDB ids are of BTN3A1 B30.2 only
T3 sequence (O00481 328-513): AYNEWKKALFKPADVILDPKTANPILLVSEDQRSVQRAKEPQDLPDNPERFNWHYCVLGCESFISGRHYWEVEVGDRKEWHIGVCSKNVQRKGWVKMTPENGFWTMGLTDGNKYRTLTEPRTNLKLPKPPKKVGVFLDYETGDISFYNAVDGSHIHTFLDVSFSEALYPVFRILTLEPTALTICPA
T3 sequence (Q7KYR7 310-506 limits assumed): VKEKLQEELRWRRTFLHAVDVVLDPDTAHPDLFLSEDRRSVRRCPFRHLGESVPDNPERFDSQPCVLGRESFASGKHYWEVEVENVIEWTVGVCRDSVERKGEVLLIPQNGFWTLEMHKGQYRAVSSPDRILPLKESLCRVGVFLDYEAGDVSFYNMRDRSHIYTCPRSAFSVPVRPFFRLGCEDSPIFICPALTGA

[5] = molecular target: T3, BTN3A1 and BTN2A1 B30.2 domains; test: ITC, second titration (BTN2A1 B30.[…] into BTN3A1 B30.2-DMASPP complex); conditions: 25 °C, 25 mM Hepes pH 7.5, 150 mM NaCl; molecular glue; protein-protein KD in presence of DMASPP
VpBTN3 B30.2 ΔC = molecular target: T4, VpBTN3 B30.2 ΔC (Vicugna pacos, UniProt A0A345DF50); test: ITC; crystal structure
T4 construct: gene Btn3; intracellular B30.2 domain, residues 323-513, C-terminal loop truncated; pET32a, E. coli BL21(DE3); N-terminal His tag removed by TEV; pocket H381, H408, W421, K423, R442, R448, R499
T4 sequence (A0A345DF50 323-513, stated change not applied): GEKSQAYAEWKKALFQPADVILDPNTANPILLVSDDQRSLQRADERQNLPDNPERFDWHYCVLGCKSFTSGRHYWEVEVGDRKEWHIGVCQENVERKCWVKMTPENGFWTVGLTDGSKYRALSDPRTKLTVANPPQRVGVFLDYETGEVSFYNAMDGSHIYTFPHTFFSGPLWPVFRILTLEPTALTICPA

T1 sequence (A0A345DF50 323-513, stated change not applied): as above
T1 sequence (A0A6J0B3M7 311-535, stated change not applied): as the sequence (A0A6J0B3M7 311-535) above

Kd [1]: 4.34 µM | KD [2]: 22.8 µM | KD [3]: 15.2 µM | Kd [4]: 8.19 µM | KD [5]: 18.8 µM | Kd (VpBTN3 B30.2 ΔC): 44.7 µM
Structure (SMILES): CC(C)=CCSP(=O)(O)OP(=O)(O)O [DMASPP]

Source: publication PMC12152872, “Molecular glue binding behavior of phosphoantigens to alpaca butyrophilins” (The Journal of Biological Chemistry, 2025)
